Several values for one entry are separate records, joined by “and”; a condition that tells them apart may be missing. Identical values can stand only once.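 Following 48 hours of exposure in 96-well plates, responses at five concentrations were used to interpolate endpoints linearly. The concentration for 50% growth inhibition is given as GI50. TGI is the concentration that stops growth completely.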

Some test systems named below: K-562 leukemia; OVCAR-4 ovarian; HCT-116 colon; MDA-MB-435; SNB-75 CNS; HL-60(TB) leukemia; IGROV1 ovarian; 786-0 renal; COLO 205 colon; RPMI-8226 leukemia.
Assay in all cases: inhibition of tumour cell growth, NCI panel, 48 h

Turning to `CC1(COc2ccc3c(c2)ncn3-c2ccc3cccc(N4CCC(N)CC4)c3n2)COC1`, the GI50 in the test on K-562 leukemia is 2.1 µM and 1.94 µM; in the test with OVCAR-4 ovarian, 2.89 µM and 3.53 µM; in the test with HCT-116 colon, 0.894 µM and 1.03 µM; in the test with MDA-MB-435, 3.06 µM and 3.25 µM; with SNB-75 CNS, 0.734 µM; in the test on HL-60(TB) leukemia it was 1.82 µM and 1.8 µM. Moreover, the GI50 in the test with IGROV1 ovarian was 4.07 µM and 2.57 µM; in the test with 786-0 renal it was 1.8 µM and 1.75 µM; with COLO 205 colon, 1.09 µM and 1.02 µM; in the test with RPMI-8226 leukemia, 2.08 µM and 1.88 µM. Also, the TGI in the test on K-562 leukemia is 8.36 µM and 8.92 µM; with OVCAR-4 ovarian, 8.15 µM and > 10 µM; in the test with HCT-116 colon, 5.35 µM and > 10 µM; with MDA-MB-435 it was 10.5 µM and > 10 µM; with SNB-75 CNS, 5.65 µM; in the test with HL-60(TB) leukemia it was 4.54 µM and 4.49 µM. In addition, the TGI was 14 µM and > 10 µM in the test on IGROV1 ovarian; 4.63 µM and 3.85 µM in the test with 786-0 renal; 2.44 µM and 2.86 µM in the test on COLO 205 colon; 5.29 µM and 5.21 µM with RPMI-8226 leukemia.

Consider `CCOC(=O)C1=C(C)N(c2ccc(F)cc2F)[C@]2(C#N)C(O)=C(Cl)C(Cl)=C(O)[C@]12C#N`, for which the GI50 with K-562 leukemia was 88 µM; in the test with OVCAR-4 ovarian, > 100 µM; in the test on HCT-116 colon it was > 100 µM; with MDA-MB-435, > 100 µM; in the test with SNB-75 CNS, > 100 µM; with HL-60(TB) leukemia, > 100 µM. The GI50 with IGROV1 ovarian was > 100 µM; in the test with 786-0 renal, > 100 µM; in the test with COLO 205 colon, > 100 µM; in the test on RPMI-8226 leukemia, 27.1 µM. For the same compound, the TGI in the test on K-562 leukemia, in the test on OVCAR-4 ovarian, in the test with HCT-116 colon, in the test with MDA-MB-435, in the test on SNB-75 CNS and in the test with HL-60(TB) leukemia was > 100 µM in each case. Also, the TGI in the test on IGROV1 ovarian, in the test on 786-0 renal, in the test on COLO 205 colon and with RPMI-8226 leukemia was > 100 µM in each case.

In the case of `CCn1c(-c2nonc2N)nc2c(C#CC(C)(C)O)nc(OC[C@@H](N)c3ccccc3)cc21`, the GI50 in the test on K-562 leukemia is 5.19 µM; with OVCAR-4 ovarian, 6.78 µM; with HCT-116 colon it was 4.13 µM; with MDA-MB-435, 5.22 µM; in the test on SNB-75 CNS, 2.45 µM; with HL-60(TB) leukemia, 5.23 µM. Moreover, the GI50 is 5.04 µM with IGROV1 ovarian, 2.98 µM in the test with 786-0 renal, 4.68 µM with COLO 205 colon and 6.51 µM with RPMI-8226 leukemia. For the same compound, the TGI turned out to be 14.1 µM with K-562 leukemia; 13.3 µM with OVCAR-4 ovarian; 7.63 µM in the test with HCT-116 colon; 9.81 µM with MDA-MB-435; 5.66 µM with SNB-75 CNS; 10.3 µM in the test with HL-60(TB) leukemia. For the same compound, the TGI was determined as 10.4 µM in the test with IGROV1 ovarian, 6.35 µM in the test with 786-0 renal, 8.31 µM with COLO 205 colon and 15.5 µM with RPMI-8226 leukemia.

On to `CC(=O)CC(OC(C)=O)C1=CCC2C(CC1C)OC(=O)C2C` (stereo unspecified), for which the TGI with K-562 leukemia, in the test with OVCAR-4 ovarian, with HCT-116 colon, in the test on MDA-MB-435, in the test with SNB-75 CNS and with HL-60(TB) leukemia was > 100 µM in each case. Further, the TGI in the test on IGROV1 ovarian, in the test with 786-0 renal, in the test with COLO 205 colon and in the test with RPMI-8226 leukemia was > 100 µM in each case.

With `O=C(O)c1nc2nc(Cl)c(Cl)nc2[nH]1`, the TGI in the test on K-562 leukemia, in the test with OVCAR-4 ovarian, in the test on HCT-116 colon, in the test on MDA-MB-435, with SNB-75 CNS and with HL-60(TB) leukemia was > 100 µM throughout. The TGI with IGROV1 ovarian, in the test with 786-0 renal, with COLO 205 colon and with RPMI-8226 leukemia was > 100 µM in each case.

`CC1=C2C(=C[C@@](C)(CO)[C@@H]2O)C(=O)[C@](C)(O)C12CC2`: the GI50 with K-562 leukemia is 0.0222 µM; in the test on RPMI-8226 leukemia it was 1.15 µM. Moreover, the TGI in the test with OVCAR-4 ovarian was 0.0267 µM; with HCT-116 colon, 0.104 µM and 0.135 µM; with MDA-MB-435, 0.0312 µM; in the test on SNB-75 CNS, 0.0296 µM and 0.0123 µM; with HL-60(TB) leukemia it was 0.0327 µM; in the test on IGROV1 ovarian it was 0.0583 µM. Moreover, the TGI was 0.0143 µM and 0.0638 µM in the test with 786-0 renal; 0.0218 µM in the test on COLO 205 colon; 6.09 µM and 12.3 µM with RPMI-8226 leukemia.

In the case of `COCCOc1ccc(-c2nc3ccc(-c4nc5ccc(N6CCN(C)CC6)cc5[nH]4)cc3[nH]2)cc1`, the GI50 with K-562 leukemia is 0.911 µM; with OVCAR-4 ovarian, 0.313 µM; in the test with HCT-116 colon it was 0.358 µM; with MDA-MB-435, 0.621 µM; in the test on SNB-75 CNS, 0.486 µM; with HL-60(TB) leukemia, 1.62 µM. In addition, the GI50 with IGROV1 ovarian is 1.71 µM; in the test with 786-0 renal it was 1.64 µM; with COLO 205 colon, 0.371 µM; with RPMI-8226 leukemia, 4.11 µM. For the same compound, the TGI with K-562 leukemia is > 100 µM; in the test on OVCAR-4 ovarian, 3 µM; with HCT-116 colon, 2.46 µM; with MDA-MB-435 it was 2.14 µM; in the test on SNB-75 CNS it was 3.14 µM; in the test on HL-60(TB) leukemia it was 91.8 µM. For the same compound, the TGI is 4.81 µM in the test with IGROV1 ovarian, 3.81 µM with 786-0 renal, 3.05 µM in the test with COLO 205 colon and 35.5 µM in the test on RPMI-8226 leukemia.

As to `Nc1cc(NN=C(c2ccc(O)cc2)c2ccc(O)cc2)c([N+](=O)[O-])cc1[N+](=O)[O-]`, the GI50 with K-562 leukemia was 3.62 µM; with OVCAR-4 ovarian it was 2.54 µM; with HCT-116 colon, 2 µM; with MDA-MB-435, 1.7 µM; in the test on SNB-75 CNS, 1.45 µM; with HL-60(TB) leukemia, 3.04 µM. The GI50 is 2.28 µM in the test on IGROV1 ovarian, 1.83 µM with 786-0 renal, 1.85 µM in the test with COLO 205 colon and 2.15 µM in the test on RPMI-8226 leukemia. Besides, the TGI in the test with K-562 leukemia stood at 31.7 µM; in the test with OVCAR-4 ovarian, 7.47 µM; in the test with HCT-116 colon, 4.23 µM; in the test on MDA-MB-435, 3.44 µM; in the test with SNB-75 CNS, 3.92 µM; with HL-60(TB) leukemia, 14 µM. Also, the TGI with IGROV1 ovarian came out at 5.38 µM; in the test on 786-0 renal it was 3.43 µM; in the test on COLO 205 colon, 4.49 µM; in the test with RPMI-8226 leukemia it was 6.46 µM.

As for `CC1(C)OC1COc1c2occc2cc2ccc(=O)oc12` (stereo unspecified), the TGI in the test with K-562 leukemia, with OVCAR-4 ovarian, with HCT-116 colon, in the test on MDA-MB-435, in the test on SNB-75 CNS and in the test with HL-60(TB) leukemia was > 100 µM throughout. Further, the TGI in the test with IGROV1 ovarian, with 786-0 renal, in the test on COLO 205 colon and in the test on RPMI-8226 leukemia was > 100 µM each time.

Values taken from PubChem BioAssay (NCI).
